In a melting point compilation (Tetko et al.):

Row | SMILES | melting point [°C]
1 | C=CCOC1OC(CO)C(O)C(OC(=O)CC(CCCCCCCCCCC)OC(=O)CCCCCCCCCCCCC)C1NC(=O)OCC(Cl)(Cl)Cl (configuration not stated) | 68 to 70
2 | CC(C)(O)C(=O)c1ccc(C(OC(=O)c2ccc(C(=O)OC(c3ccc(C(=O)C(C)(C)O)cc3)c3ccc(C(=O)C(C)(C)O)cc3)cc2)c2ccc(C(=O)C(C)(C)O)cc2)cc1 | 102
3 | Cc1cc(Cn2nnn(-c3cc(C(F)(F)F)cc(C(F)(F)F)c3)c2=O)ccc1N(C(=O)c1c(I)cccc1C(N)=O)C(C)(C)CS(C)=O (configuration not stated) | 165 to 171
4 | CCCCCCCCCCSc1c(SCCCCCCCCCC)c(SCCCCCCCCCC)c(SCCCCCCCCCC)c(SCCCCCCCCCC)c1SCCCCCCCCCC | 29 to 30
5 | O=C(c1ccc(I)cc1)c1cc2c3c(c1)C(c1cccc(Cl)c1)CC(=O)N3CC2 (configuration not stated) | 275
6 | CC1c2cc(C(C)(C)C)cc(C(C)(C)C)c2OP(OP2Oc3c(cc(C(C)(C)C)cc3C(C)(C)C)C(C)c3cc(C(C)(C)C)cc(C(C)(C)C)c3O2)Oc2c1cc(C(C)(C)C)cc2C(C)(C)C (configuration not stated) | 281 to 285
7 | CN(C(=O)Cc1c(-c2ccccc2)c2ccccc2c(=O)n1C)c1cc(C(F)(F)F)cc(C(F)(F)F)c1 | 193 to 194
8 | OP(=S)(C(F)(F)C(F)(F)C(F)(F)C(F)(F)C(F)(F)C(F)(F)C(F)(C(F)(F)F)C(F)(F)F)C(F)(F)C(F)(F)C(F)(F)C(F)(F)C(F)(F)C(F)(F)C(F)(C(F)(F)F)C(F)(F)F | > 300
9 | CC(=O)OCC1OC(OC2C(COC(C)=O)OC(OC3C(CO)OC(OCCBr)C(O)C3O)C(OC(C)=O)C2OC(C)=O)C(OC(C)=O)C(OC(C)=O)C1OC(C)=O (configuration not stated) | 178 to 180
10 | CCCCCCCCCCCCCCCCS(=O)(=O)Nc1cccc2ccc(O)c(NS(=O)(=O)c3ccc(NC(C)=O)c4c(O)c(N=Nc5ccccc5OC)ccc34)c12 | 177 to 180
11 | CN=S(=O)(NC(=O)Nc1nc(C)nc(OC)n1)c1ccccc1Cl (configuration not stated) | 154 to 160
12 | CCC1(O)CC(OC2CC(N(C)C)C(OC3CC4OC5CC(=O)C(C)OC5OC4C(C)O3)C(C)O2)c2c(cc3c(c2O)C(=O)c2c(O)cccc2C3=O)C1C(=O)OC (configuration not stated) | 161
13 | CC12CC3CC(C)(C1)CC(N)(C3)C2 | 153
14 | CCCc1nc(OC)c(NC(=O)N2CCN(c3cc(OC)cc(OC)c3)CC2)cc1C(=O)NC(C)C(=O)Nc1cc(CO)cc(Nc2c3ccccc3nc3ccccc23)c1 (configuration not stated) | 220 to 222
15 | CC(=O)ON=NCc1ccc(C(=O)NCCCNC(=O)[C@@H]2CCCN2S(=O)(=O)c2ccc(Cl)c(COc3cccc4c(-n5ccnc5)cc(C)nc34)c2Cl)cc1 | 96
16 | CC(C)[Si](OC(=O)Cc1cc(I)c(Oc2cc(I)c(O)c(I)c2)c(I)c1)(C(C)C)C(C)C | 146
17 | CC(C)[C@H](NC(=O)OCc1ccccn1)C(=O)N[C@@H](Cc1ccccc1)[C@H](O)[C@@H](O)[C@H](Cc1ccccc1)NC(=O)[C@@H](NC(=O)N(C)Cc1csc(N)n1)C(C)C | 188 to 192
18 | C=CCOC(=O)NC(=O)C(c1ccccc1)c1ccccc1 | 118 to 120
19 | O=C(OI(OC(=O)C(F)(F)F)C(F)(F)C(F)(F)C(F)(F)C(F)(F)C(F)(F)C(F)(F)C(F)(F)C(F)(F)C(F)(F)C(F)(F)F)C(F)(F)F | 83 to 88
20 | O=C(CN1CCN(C(=O)c2cc(C(F)(F)F)cc(C(F)(F)F)c2)[C@H](Cc2c[nH]c3ccccc23)C1)N1CCN(C(c2ccccc2)(c2ccccc2)c2ccccc2)CC1 | 160 to 166
21 | C=COC(=O)CCC | -80

Row | SMILES | melting point [°C]
22 | Nc1ncc(Br)cc1[N+](=O)[O-] | 209
23 | Cc1ccc(N(C)c2cccs2)cc1O | 131 to 133
24 | CCCCCCCCCCCCCCCCCCSc1nc(SCCCCCCCCCCCCCCCCCC)nc(-c2cc(C(C)(C)C)c(O)c(C(C)(C)C)c2)n1 | 87 to 89
25 | Cc1nn(-c2ccc(C(F)(F)F)cn2)cc1CCCOc1cccc(OC(C)(C)C(=O)O)c1 | 107 to 108
26 | CC(=O)OCC1OC(OC2C(COC(C)=O)OC(OC3C(CO)OC(OCCBr)C(OC(=O)c4ccccc4)C3OC(=O)c3ccccc3)C(OC(C)=O)C2OC(C)=O)C(OC(C)=O)C(OC(C)=O)C1OC(C)=O (configuration not stated) | 218 to 220
27 | COc1cc(NC(=O)N2CCCC2)c(S(C)(=N)=O)cc1OC (configuration not stated) | 312 to 314
28 | CC(C)CCCC(C)C1CCC2C3CC=C4CC(N(CCCNC(=O)CCNC(=O)CNC(=O)OCC5c6ccccc6-c6ccccc65)C(=O)OC(C)(C)C)CCC4(C)C3CCC12C (configuration not stated) | 112 to 114
29 | Oc1ccccc1N1CCOCC1 | 128
30 | CCOC1OC(CO)C(OC2OC(COC(C)=O)C(OC3OC(COC(C)=O)C(OC(C)=O)C(OC(C)=O)C3OC(C)=O)C(OC(C)=O)C2OC(C)=O)C(O)C1NC(C)=O (configuration not stated) | 260 to 262
31 | CC(C)(c1ccc(OCC(O)CN2C(=O)NC3(CC(C)(C)N(CCO)C(C)(C)C3)C2=O)cc1)c1ccc(OCC(O)CN2C(=O)NC3(CC(C)(C)N(CCO)C(C)(C)C3)C2=O)cc1 (configuration not stated) | 233 to 236
32 | C=CCOc1nc(NC(C)(C)CC(C)(C)C)nc(N(CCCCCCN(c2nc(NC(C)(C)CC(C)(C)C)nc(OCC=C)n2)C2CC(C)(C)NC(C)(C)C2)C2CC(C)(C)NC(C)(C)C2)n1 | 210 to 212
33 | COc1cccc2c1CC[C@@H](C(=O)O)C2 | 150 to 152
34 | CC(C)(O)CON1C(C)(C)CC(CCCCNc2nc(NCCCCC3CC(C)(C)N(OCC(C)(C)O)C(C)(C)C3)nc(NCCCCC3CC(C)(C)N(OCC(C)(C)O)C(C)(C)C3)n2)CC1(C)C | 172 to 176
35 | O=S(=O)(CCCCCOc1ccc(C2=C(c3ccc(OC4CCCCO4)cc3)CCCc3cc(OC4CCCCO4)ccc32)cc1)CCCC(F)(F)C(F)(F)F (configuration not stated) | 108 to 110
36 | CC(C)(C)c1cc(CCC(=O)OCC(COC(=O)CCc2cc(C(C)(C)C)c(O)c(C(C)(C)C)c2)(COC(=O)CCc2cc(C(C)(C)C)c(O)c(C(C)(C)C)c2)COC(=O)CCc2cc(C(C)(C)C)c(O)c(C(C)(C)C)c2)cc(C(C)(C)C)c1O | 55 to 85
37 | CC1N=C(c2ccccc2)c2cc(Cl)ccc2-n2c1nnc2C(CN(C)C)c1ccccc1 (configuration not stated) | 200 to 203
38 | N#Cc1cccc(N2CCOCC2)c1 | 105
39 | C=CC(=O)OCCCCCCCCCCCOc1ccc(-c2nc(-c3ccccc3)nc(-c3ccc(OCCCCCCCCCCCOC(=O)C=C)cc3O)n2)c(O)c1 | 93.3
40 | CCOc1cc(C(=O)N2CCC(CCN3CCC(C(=O)c4nc5ccccc5n4Cc4ccc(F)cc4)CC3)(c3ccc(OC)c(OC)c3)C2)cc(OCC)c1OCC (configuration not stated) | 139 to 141
41 | CC1CC2C3CCC4=CC(=O)C=CC4(C)C3(Cl)C(O)CC2(C)C1(O)C(=O)CO (configuration not stated) | 217 to 222
42 | CC(=O)N1C(C)(C)CC(OC(=O)CCn2c(=O)n(CCC(=O)OC3CC(C)(C)N(C(C)=O)C(C)(C)C3)c(=O)n(CCC(=O)OC3CC(C)(C)N(C(C)=O)C(C)(C)C3)c2=O)CC1(C)C | 126 to 128
